Experimental data as given in PMC7673538 (PLoS Biology, 2020).
Read-outs that look alike come from different tables or passages of the source.

Legend:
HRV-A2 = assay: microbe, parasite or virus in culture; assay type: cell-based, human rhinovirus; conditions: for EC50: Human rhinovirus sp., HRVA2, HeLa R19, read-out: EC50 HRV-A2
EV-D68 = assay: microbe, parasite or virus in culture; assay type: cell-based, enterovirus D68; conditions: for EC50: Enterovirus D
CV-B3 [1] = assay: microbe, parasite or virus in culture; assay type: cell-based, coxsackievirus B3; conditions: for EC50: Enterovirus B
[2] = system: representative EVs and RVs; assay type: cell-based
HRV-B14 = assay: microbe, parasite or virus in culture; assay type: cell-based, human rhinovirus; conditions: for EC50: Human rhinovirus sp.
CV-A24 = assay: microbe, parasite or virus in culture; assay type: cell-based, coxsackievirus A24; conditions: Enterovirus C, CVA24, HeLa R19, read-out: EC50 CV-A24
in vitro [3] = conditions: human
CV-B3 [4] = assay: microbe, parasite or virus in culture; assay type: cell-based, coxsackievirus B3; conditions: Enterovirus B
CV-B3 [5] = assay: microbe, parasite or virus in culture; assay type: cell-based, coxsackievirus B3; conditions: Enterovirus B, CVB3, BGM
PV-1 = assay: microbe, parasite or virus in culture; assay type: cell-based, poliovirus 1; conditions: Enterovirus C, HeLa R19, read-out: EC50 PV-1
in vitro [6] = conditions: monkey
in vitro [7] = conditions: human; remark: listed apart in the source
EV-A71 = assay: microbe, parasite or virus in culture; assay type: cell-based, enterovirus A71; conditions: Enterovirus A
[8] = EVD68, HeLa R19, read-out: EC50 EV-D68
[9] = EVD68, HeLa R19, read-out: EC50 Exp1
[10] = EVD68, HeLa R19, read-out: EC50 Exp2
[11] = CVB3, HeLa R19, read-out: CV-B3 EC50 Average
[12] = CVB3, HeLa R19, read-out: CV-B3 Exp 1 EC50
[13] = CVB3, HeLa R19, read-out: CV-B3 Exp2 EC50
[14] = CVB3, HeLa R19, read-out: EC50 HelaR19 Average
[15] = CVB3, HeLa R19, read-out: Exp 2 EC50 HelaR19
[16] = CVB3, HAP1, read-out: EC50 Hap1 Average
[17] = CVB3, HAP1, read-out: Exp 1 EC50 Hap1
[18] = CVB3, HAP1, read-out: Exp 2 EC50 Hap1
[19] = HRVB14, HeLa R19, read-out: EC50 HRV-B14
[20] = EVA71, HeLa R19, read-out: EC50 EV-A71
[21] = EVA71, HeLa R19, read-out: EC50 Exp1
[22] = EVA71, HeLa R19, read-out: EC50 Exp2

With (S)-fluoxetine [reference compound] the “inhibition of HRV-A2 replication (in words)” value (HRV-A2) was “inhibited”, the “cross-resistance of 19d-resistant EV-D68 virus pools (in words)” value (EV-D68) was “cross-resistance” and the “inhibition of EV-D68 replication (in words)” value (EV-D68) was “inhibited”. The “antiviral activity against CV-B3 (in words)” value (CV-B3 [1]) was “inhibited”, the “cross-resistance of 19d-resistant CV-B3 virus pools (in words)” value (CV-B3 [1]) was “cross-resistant” and the “inhibition of contemporary/clinical isolates of EV-A71, CV-A24v and EV-D68 (in words)” value [2] was “inhibited contemporary strains of EV-D68 and some, but not all, contemporary EV-A71 strains”. The “inhibition of HRV-B14 replication (in words)” value (HRV-B14) was “inhibited”.
`COc1ccc(N(Cc2ccc(C(F)(F)F)cc2)C(=O)c2ccco2)cc1` [Compound 19e, N-(4-Methoxyphenyl)-N-(4-(trifluoromethyl)benzyl)furan-2-carboxamide] showed an EC50 (HRV-A2) of over 30 µM, an EC50 (EV-D68; [8]) of 4.47 ± 0.26 µM and an EC50 (EV-D68; [9]) of 4.72 µM. For the same molecule, the EC50 (EV-D68; [10]) was 4.21 µM, the EC50 (CV-A24) was over 30 µM and the “effect of the substitution on antiviral activity against CV-B3 (in words)” value (CV-B3 [1]) was “only marginally affected antiviral activity”. The EC50 (CV-B3 [1]; [11]) was 0.86 µM, the EC50 (CV-B3 [1]; [12]) was 0.73 µM and the EC50 (CV-B3 [1]; [13]) was 0.98 µM. For the same molecule, the EC50 (CV-B3 [1]; [14]) was 0.93 µM, the EC50 (CV-B3 [1]; [15]) was 0.99 µM and the CC50 (in vitro [3]; CC50 Average) was over 30 µM. It also gave a CC50 (in vitro [3]; CC50 HelaR19 Average) of 54 µM, a CC50 (in vitro [3]; Exp 1 CC50) of over 30 µM and a CC50 (in vitro [3]; Exp 1 CC50 HelaR19) of 53 µM. For the same molecule, the CC50 (in vitro [3]; Exp2 CC50) was over 30 µM, the CC50 (in vitro [3]; Exp 2 CC50 HelaR19) was 55 µM and the EC50 (CV-B3 [4]; [16]) was 2.85 µM. For the same molecule, the EC50 (CV-B3 [4]; [17]) was 2.14 µM, the EC50 (CV-B3 [4]; [18]) was 3.56 µM and the “cytotoxicity (in words)” value (HeLa R19 cells; human, monkey) was “cytotoxicity in a similar range as the parental compound 1”. It also gave an EC50 (CV-B3 [5]; read-out: EC50 BGM Average) of 2.41 µM, an EC50 (CV-B3 [5]; read-out: Exp 1 EC50 BGM) of 2.05 µM and an EC50 (CV-B3 [5]; read-out: Exp 2 EC50 BGM) of 2.76 µM. The EC50 (PV-1) was over 30 µM, the CC50 (in vitro [6]; CC50 BGM Average) was 55.9 µM and the CC50 (in vitro [6]; Exp 1 CC50 BGM) was 55 µM. For the same molecule, the CC50 (in vitro [6]; Exp 2 CC50 BGM) was 56.9 µM, the EC50 (HRV-B14; HRVB14, HeLa R19, read-out: EC50 Exp1) was 7.9 µM and the EC50 (HRV-B14; HRVB14, HeLa R19, read-out: EC50 Exp2) was 8.86 µM. The EC50 (HRV-B14; [19]) was 8.38 ± 0.48 µM, the CC50 (in vitro [7]; CC50 Hap1 Average) was 54.9 µM and the CC50 (in vitro [7]; Exp 1 CC50 Hap1) was 55.3 µM. It also gave a CC50 (in vitro [7]; Exp 2 CC50 Hap1) of 54.5 µM, an EC50 (EV-A71; EVA71, HeLa R19, read-out: EC50 Average) of 4.07 µM and an EC50 (EV-A71; [20]) of 4.08 ± 0.99 µM. The EC50 (EV-A71; [21]) was 3.09 µM and the EC50 (EV-A71; [22]) was 5.06 µM.
Molecule `O=C(c1ccc[nH]1)N(Cc1ccc(C(F)(F)F)cc1)c1ccccc1` [Compound 22, N-Phenyl-N-(4-(trifluoromethyl)benzyl)-1H-pyrrole-2-carboxamide] has an EC50 (HRV-A2) of over 30 µM, an EC50 (EV-D68; [8]) of 12.4 ± 0.81 µM and an EC50 (EV-D68; [9]) of 11.6 µM. The EC50 (EV-D68; [10]) was 13.2 µM, the EC50 (CV-A24) was over 30 µM and the “effect of the substitution on antiviral activity against CV-B3 (in words)” value (CV-B3 [1]) was “little, if any, effect on antiviral activity”. The EC50 (CV-B3 [1]; [11]) was 1.5 µM, the EC50 (CV-B3 [1]; [12]) was 1.42 µM and the EC50 (CV-B3 [1]; [13]) was 1.58 µM. The EC50 (CV-B3 [1]; [14]) was 2.6 µM, the EC50 (CV-B3 [1]; CVB3, HeLa R19, read-out: Exp 1 EC50 HelaR19) was 2.69 µM and the EC50 (CV-B3 [1]; [15]) was 2.51 µM. It also gave a CC50 (in vitro [3]; CC50 Average) of over 30 µM, a CC50 (in vitro [3]; CC50 HelaR19 Average) of over 100 µM and a CC50 (in vitro [3]; Exp 1 CC50) of over 30 µM. For the same molecule, the CC50 (in vitro [3]; Exp 1 CC50 HelaR19) was over 100 µM, the CC50 (in vitro [3]; Exp2 CC50) was over 30 µM and the CC50 (in vitro [3]; Exp 2 CC50 HelaR19) was over 100 µM. For the same molecule, the EC50 (CV-B3 [4]; [16]) was 2.69 µM, the EC50 (CV-B3 [4]; [17]) was 2.5 µM and the EC50 (CV-B3 [4]; [18]) was 2.87 µM. For the same molecule, the “cytotoxicity (in words)” value (HeLa R19 cells) was “did not show any cytotoxicity”, the EC50 (CV-B3 [5]; read-out: EC50 BGM Average) was 2.28 µM and the EC50 (CV-B3 [5]; read-out: Exp 1 EC50 BGM) was 2.55 µM. The EC50 (CV-B3 [5]; read-out: Exp 2 EC50 BGM) was 2.01 µM, the EC50 (PV-1) was over 30 µM and the CC50 (in vitro [6]; CC50) was over 100 µM. The CC50 (in vitro [6]; CC50 BGM Average) was over 100 µM, the CC50 (in vitro [6]; Exp 1 CC50 BGM) was over 100 µM and the CC50 (in vitro [6]; Exp 2 CC50 BGM) was over 100 µM. It also gave an EC50 (HRV-B14; [19]) of over 30 µM, a CC50 (in vitro [7]; CC50) of over 100 µM and a CC50 (in vitro [7]; CC50 Hap1 Average) of over 100 µM. The CC50 (in vitro [7]; Exp 1 CC50 Hap1) was over 100 µM, the CC50 (in vitro [7]; Exp 2 CC50 Hap1) was over 100 µM and the EC50 (EV-A71; [20]) was 1.27 ± 0.49 µM. The EC50 (EV-A71; [21]) was 0.78 µM and the EC50 (EV-A71; [22]) was 1.76 µM.
